Data reported in patent publication US11400101B2, “Treatment of allergic rhinitis using a combination of mometasone and olopatadine” (GLENMARK SPECIALTY S.A., priority 2013, dated 2022).
Values belong to the molecule of their own block, whether it stands above or below them.

Key:
[1] = Crystallization of olopatadine hydrochloride in the fixed dose combination aqueous suspension versus pH; type: physicochemical
sneezing response = test: Sneezing response in ovalbumin induced rhinitis model (whole body plethysmography); type: in vivo, guinea pigs; conditions: for Inhibition of sneezing response (in words) / Number of Sneeze (0-50 min): MF 10 μg; for Percent inhibition of sneeze: MF 10 μg per animal, vs ovalbumin control; for Number of Sneeze (0-50 min): intranasal, ovalbumin challenged
Description: Male Dunkin Hartley guinea pigs were actively sensitized with a subcutaneous injection of 1.5 mg of ovalbumin and 20 mg of aluminum hydroxide gel on days 0 and 7. Guinea pigs were sensitized intranasally with 2% ovalbumin from days 14-17. On day 28, the animals were challenged with 6% ovalbumin intranasally. Mometasone furoate 10 μg was given intranasally 24 hours and 1 hour prior to the final ovalbumin challenge. Olopatadine hydrochloride was given intranasally 1 hour before the final ovalbumin challenge. The dosing volume was 40 μl/animal. The saline control group and ovalbumin control group received vehicle (40 μl, 0.1% Tween 80 in distilled water). Sneezing response was determined by using whole body plethysmography (Buxco Research Systems, USA) for 50 minutes after final saline or ovalbumin challenge. The procedure in Example 1 was repeated except 120 μg of olopatadine hydrochloride (based on the equivalent weight of olopatadine free base) was used. The animal groups in Table 3 below were used during this experiment. Compound administration was performed as in Example 1, except the dosing volume was 60 μl/animal. The saline control group and ovalbumin control group received vehicle (60 μl, 0.1% Tween 80 in distilled water). In vivo evaluations were performed as in Example 1.

[2] = Pharmacokinetics of olopatadine, single-dose three-period cross-over study, Example 12; type: in vivo, human; conditions: single dose nasal spray
Description: The pharmacokinetics of olopatadine in a fixed dose combination of mometasone furoate and olopatadine hydrochloride nasal spray was evaluated in a clinical trial. The clinical trial was a randomized, single-center, single-dose, open-label, three-period, six-sequence, cross-over study to evaluate three treatments administered as a nasal spray. The three treatments included a combination of mometasone furoate and olopatadine hydrochloride nasal spray, olopatadine hydrochloride nasal spray and […]® nasal spray. […] The study consisted of a screening visit, 3 single-dose treatment periods with washout periods of 7 to 14 days between dosing in each treatment period, an early withdrawal visit if applicable, and a follow-up telephone call (or visit) 1 to 7 days after completing the third treatment period. A total of 30 subjects were randomized to 1 of 6 treatment sequences and received at least 1 dose of study drug. All 30 subjects were included in the safety analysis set and the pharmacokinetic subset. All but 2 subjects completed the study per protocol.

[3] = Plasma pharmacokinetics of TP-1 in the Phase III study, day 1 and day 8 (steady state); type: in vivo, human; conditions: human, in vivo
Excerpt: (§1) This study consisted of four visits to the study site. After the initial screening visit (Visit 1), subjects who met all study selection criteria were required to undergo a single-blind placebo run-in period for 7-10 days. Following the completion of the run-in period, eligible subjects meeting the randomization criteria were enrolled and randomized to one of the four treatment arms. Subjects were dispensed medication as per the randomization list. Randomized subjects were required to undergo a 2 week (14 days) treatment period as per the protocol to assess the efficacy and safety of the assigned treatment. Subjects were instructed to record the symptom scores in a symptom assessment diary. They were also scheduled to have at least two blood samples for PK assessment during the treatment period.
• Change from baseline in average AM and PM subject-reported 12-hour rTNSS (reflective TNSS) over the 14-day treatment period. Secondary Endpoints • Change from baseline in average AM and PM subject-reported 12-hour iTNSS (instantaneous TNSS) over the 14 day treatment period. • Change from baseline in average AM and PM subject-reported 12-hour rTOSS (reflective TOSS) over the 14-day treatment period. • Onset of action for each treatment are assessed by comparing the change from baseline in post-treatment iTNSS between each active treatment and placebo at defined time points (prior to first dose (pre-dose), 15 min, 30 min, 45 min, 60 min, 90 min, 120 min, 150 min, 180 min, 210 min, and 240 min) after the first study treatment for 4 hours. • Change from baseline in the overall Rhinoconjunctivitis Quality of Life questionnaire (RQLQ)—Standardized Activities (RQLQ(S)) score on Day 15 (Visit 4) for the Full Analysis Set (FAS). Pharmacokinetic Endpoints • Plasma PK: Maximum plasma concentration (Cmax), time to attain Cmax (Tmax), and area under the plasma concentration-time curve over the dosing interval (AUCtau) will be estimated for mometasone furoate and olopatadine on Day 1 and Day 8 based on the pharmacokinetic analysis set (PKAS). Tertiary Efficacy Endpoints Nasal Symptoms: • Change from baseline in AM subject-reported rTNSS over the 14-day treatment period. • Change from baseline in AM subject-reported iTNSS over the 14-day treatment period. • Change from baseline in PM subject-reported rTNSS over the 14-day treatment period. • Change from baseline in PM subject-reported iTNSS over the 14-day treatment period. • Change from baseline in subject-reported reflective individual nasal symptoms over the 14-day treatment period (AM, PM and average of AM and PM). • Change from baseline in subject-reported instantaneous individual nasal symptoms over the 14-day treatment period (AM, PM and average of AM and PM). • Change from baseline in average AM and PM subject-reported rTNSS and iTNSS for each day. • Change from baseline in AM subject-reported rTNSS and iTNSS for each day. • Change from baseline in PM subject-reported rTNSS and iTNSS for each day. […]

[4] = system: total cells and eosinophils in nasal lavage; test: Nasal lavage total cell count and eosinophils in ovalbumin induced rhinitis model; type: in vivo, guinea pigs; conditions: for Inhibition of total cell and eosinophils in nasal lavage (in words): MF 10 μg; for % inhibition of eosinophils / Percent inhibition of total cell count / Eosinophils × 10^5/ml nasal lavage / Total cell count × 10^5/ml nasal lavage: MF 10 μg per animal
Description: Male Dunkin Hartley guinea pigs were actively sensitized with a subcutaneous injection of 1.5 mg of ovalbumin and 20 mg of aluminum hydroxide gel on days 0 and 7. Guinea pigs were sensitized intranasally with 2% ovalbumin from days 14-17. On day 28, the animals were challenged with 6% ovalbumin intranasally. Mometasone furoate 10 μg was given intranasally 24 hours and 1 hour prior to the final ovalbumin challenge. Olopatadine hydrochloride was given intranasally 1 hour before the final ovalbumin challenge. The dosing volume was 40 μl/animal. The saline control group and ovalbumin control group received vehicle (40 μl, 0.1% Tween 80 in distilled water). Nasal lavage was performed at 4 hours after challenge of animals with saline or ovalbumin on day 28. Animals were anesthetized with an overdose of urethane, the trachea was exposed and nasal lavage was performed using 2 mL pre-warmed normal saline. The collected nasal lavage was taken for total cell count using a hemocytometer. The nasal lavage was centrifuged, and the cell pellet resuspended in 15 μL guinea pig serum and used for preparation of smears. Slides were stained with Leishman's stain and a differential cell count of 100 cells based on standard morphology was performed manually. The total number of eosinophils in each nasal lavage sample was calculated using the formula: [formula] Percent inhibition of eosinophils was calculated using the following formula: The procedure in Example 1 was repeated except 120 μg of olopatadine hydrochloride (based on the equivalent weight of olopatadine free base) was used. The animal groups in Table 3 below were used during this experiment. Compound administration was performed as in Example 1, except the dosing volume was 60 μl/animal. The saline control group and ovalbumin control group received vehicle (60 μl, 0.1% Tween 80 in distilled water). In vivo evaluations were performed as in Example 1.

[5] = system: seasonal allergic rhinitis (SAR); test: Phase III clinical study in SAR, fall and mountain cedar season, Example 6; conditions: human, in vivo
Excerpt: A total of 1,176 randomized subjects (˜294 subjects per treatment arm) were enrolled in the study.
Subjects were randomized to treatment in a 1:1:1:1 ratio to the following four treatment arms, at multiple study sites.
as §1, with “diary.” for “diary. They were also scheduled to have at least two blood samples for PK assessment during the treatment period.”
• Change from baseline in average AM and PM subject-reported 12-hour rTNSS (reflective TNSS) over the 14-day treatment period. […] The non-nasal symptoms are assessed in a similar manner to the ocular symptoms above. […]

[6] = Example 1, OH 50 μg, 4 hours after challenge

- State of olopatadine hydrochloride in the fixed dose combination aqueous suspension ([1]; pH of 5 to 5.5): crystallizes out
- State of olopatadine hydrochloride in the aqueous suspension ([1]; pH of about 3.3 to about 4.1): remains dissolved
- Last time point until which quantifiable concentrations were observed [2]: 48 h
- Olopatadine Tmax, Median [3]: 1.00 h
Molecule: CN(C)CC/C=C1/c2ccccc2COc2ccc(CC(=O)O)cc21.Cl [Olopatadine Hydrochloride, (Z)-11-[3-(dimethylamino)propylidene]-6,11-dihydrodibenz[b,e]oxepin-2-acetic acid hydrochloride]
- Inhibition of sneezing response (in words) (sneezing response; Example 1, OH 50 μg): did not show significant inhibition
- Percent inhibition of sneeze (sneezing response; Example 1, OH 50 μg): 45%
- Number of Sneeze (0-50 min) (sneezing response; Example 1, per animal: OH 50 μg, combination 50 (OH) & 10 (MF)): 12.29
- Inhibition of sneezing response (in words) (sneezing response; Example 2, OH 120 μg): did not show significant inhibition
- Percent inhibition of sneeze (sneezing response; Example 2, OH 120 μg): 51%
- Number of Sneeze (0-50 min) (sneezing response; Example 2, per animal: OH 120 μg, combination 120 (OH) & 10 (MF)): 17.90
- Inhibition of total cell and eosinophils in nasal lavage (in words) ([4]; Example 1, OH 50 μg): did not show significant inhibition
- % inhibition of eosinophils ([4]; Example 1, OH 50 μg): 2%
- Percent inhibition of total cell count ([4]; Example 1, OH 50 μg): 3%
- Eosinophils × 10^5/ml nasal lavage [4, 6]: 3.64 × 10^5/ml
- Total cell count × 10^5/ml nasal lavage [4, 6]: 6.63 × 10^5/ml
- Inhibition of total cell and eosinophils in nasal lavage (in words) ([4]; Example 2, OH 120 μg): did not show significant inhibition
- % inhibition of eosinophils ([4]; Example 2, OH 120 μg): 8%
- Eosinophils × 10^5/ml nasal lavage ([4]; Example 2, OH 120 μg): 3.08 × 10^5/ml
- Percent inhibition of total cell count ([4]; Example 2, OH 120 μg): 17%
- Total cell count × 10^5/ml nasal lavage ([4]; Example 2, OH 120 μg): 5.83 × 10^5/ml

Molecule: Mometasone Furoate Monohydrate and Olopatadine Hydrochloride Nasal Spray (25 mcg+600 mcg) [TP-1]
- Urinary tract infection reported as adverse event [5]: 1%
